Experiments:
Type in all cases: cell-based
E. coli DH5α = assay: Antibacterial activity: MIC and growth curve against E. coli DH5α in 96-well plate; settings: minimal inhibitory concentration against E. coli DH5α; 96-well plate, 5×10^5 CFU/mL, 37° C., judged after 8 h
Procedure, shortened: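 Log-phase bacteria (OD600 ~0.5) resuspended in LB at 5×10^5 CFU/mL, exposed to recombinant protein at 50, 25, 12.5 μg/mL final in triplicate, 37 °C shaking at 175 rpm. OD600 read every 30 min; MIC is lowest concentration showing no growth.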

E. coli BL21 = assay: MIC against Gram-negative bacteria: E. coli BL21; settings: 5×10^5 CFU/mL
Procedure, shortened: (§1)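 Bacteria grown in LB at 37° C to McFarland 0.5, resuspended and seeded at 5×10^5 CFU/mL in 96-well plates. Purified human EGF-domain proteins two-fold serially diluted, triplicate wells; cultured at 37° C, shaking 175 rpm. MIC = lowest protein concentration with no growth.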

Pseudomonas aeruginosa = assay: MIC against Gram-negative bacteria: Pseudomonas aeruginosa; settings: 5×10^5 CFU/mL
Procedure, shortened: as §1

Klebsiella pneumonia = assay: MIC against Gram-negative bacteria: Klebsiella pneumonia; settings: 5×10^5 CFU/mL
Procedure, shortened: as §1

Enterobacter cloacae = assay: MIC against Gram-negative bacteria: Enterobacter cloacae; settings: 5×10^5 CFU/mL
Procedure, shortened: as §1

Aeromonas hydrophila = assay: MIC against Gram-negative bacteria: Aeromonas hydrophila; settings: 5×10^5 CFU/mL
Procedure, shortened: as §1

Citrobacter diversus = assay: MIC against Gram-negative bacteria: Citrobacter diversus; settings: 5×10^5 CFU/mL
Procedure, shortened: as §1

Moraxella catarrhalis = assay: MIC against Gram-negative bacteria: Moraxella catarrhalis; settings: 5×10^5 CFU/mL
Procedure, shortened: as §1

Proteus mirabilis = assay: MIC against Gram-negative bacteria: Proteus mirabilis; settings: 5×10^5 CFU/mL
Procedure, shortened: as §1

Proteus vulgaris = assay: MIC against Gram-negative bacteria: Proteus vulgaris; settings: 5×10^5 CFU/mL
Procedure, shortened: as §1

Serratia marcescens = assay: MIC against Gram-negative bacteria: Serratia marcescens; settings: 5×10^5 CFU/mL
Procedure, shortened: as §1

[1] = P. aeruginosa, 10 h cultivation at 37° C.
[2] = K. pneumonia, 10 h cultivation at 37° C.
[3] = E. cloacae, 10 h cultivation at 37° C.
[4] = A. hydrophila, 10 h cultivation at 37° C.
[5] = C. diversus, 10 h cultivation at 37° C.
[6] = M. catarrhalis, 10 h cultivation at 37° C.
[7] = P. mirabilis, 10 h cultivation at 37° C.
[8] = P. vulgaris, 10 h cultivation at 37° C.
[9] = S. marcescens, 10 h cultivation at 37° C.
[10] = 10 h cultivation at 37° C., two-fold serial dilution
[11] = Pseudomonas aeruginosa, 96-well plate, 37° C., 10 h
[12] = Klebsiella pneumonia, 96-well plate, 37° C., 10 h
[13] = Enterobacter cloacae, 96-well plate, 37° C., 10 h
[14] = Aeromonas hydrophila, 96-well plate, 37° C., 10 h
[15] = Citrobacter diversus, 96-well plate, 37° C., 10 h
[16] = Moraxella catarrhalis, 96-well plate, 37° C., 10 h
[17] = Proteus mirabilis, 96-well plate, 37° C., 10 h
[18] = Proteus vulgaris, 96-well plate, 37° C., 10 h
[19] = Serratia marcescens, 96-well plate, 37° C., 10 h

PRT215 (YTQCTDGYEWDPVRQQCKDIDECDIVPDACKGGMKCVNHYGGYLCL; listed as Homo sapiens)
25 µg/mL: MIC (E. coli DH5α) | MIC (μg/mL) P. aeruginosa (Pseudomonas aeruginosa; [1]) | MIC (μg/mL) E. cloacae (Enterobacter cloacae; [3]) | MIC (μg/mL) C. diversus (Citrobacter diversus; [5]) | MIC (μg/mL) P. mirabilis (Proteus mirabilis; [7])
100 µg/mL: MIC (μg/mL) K. pneumonia (Klebsiella pneumonia; [2])
12.5 µg/mL: MIC (μg/mL) E. coli BL21 (E. coli BL21; 10 h cultivation at 37° C.) | MIC (μg/mL) A. hydrophila (Aeromonas hydrophila; [4]) | MIC (μg/mL) M. catarrhalis (Moraxella catarrhalis; [6]) | MIC (μg/mL) P. vulgaris (Proteus vulgaris; [8]) | MIC (μg/mL) S. marcescens (Serratia marcescens; [9])

PRT786 (YGKDCALICQCQNGADCDHISGQCTCRTGFMGRHCE; listed as Homo sapiens)
50 µg/mL: MIC (E. coli DH5α) | MIC (μg/mL) K. pneumonia (Klebsiella pneumonia; [2])
25 µg/mL: MIC (μg/mL) E. coli BL21 (E. coli BL21; 10 h cultivation at 37° C.) | MIC (μg/mL) C. diversus (Citrobacter diversus; [5]) | MIC (μg/mL) P. mirabilis (Proteus mirabilis; [7])
12.5 µg/mL: MIC (μg/mL) P. aeruginosa (Pseudomonas aeruginosa; [1]) | MIC (μg/mL) E. cloacae (Enterobacter cloacae; [3]) | MIC (μg/mL) A. hydrophila (Aeromonas hydrophila; [4]) | MIC (μg/mL) M. catarrhalis (Moraxella catarrhalis; [6]) | MIC (μg/mL) P. vulgaris (Proteus vulgaris; [8]) | MIC (μg/mL) S. marcescens (Serratia marcescens; [9])

PRT1084 (HLVKCAEKEKTFCVNGGECFMVKDLSNPSRYLCKCQPGFTGARCT; listed as Homo sapiens)
25 µg/mL: MIC M. catarrhalis (Moraxella catarrhalis; [10]) | MIC P. vulgaris (Proteus vulgaris; [10])
12.5 µg/mL: MIC E. coli BL21 (E. coli BL21; [10]) | MIC A. hydrophila (Aeromonas hydrophila; [10]) | MIC C. diversus (Citrobacter diversus; [10]) | MIC P. mirabilis (Proteus mirabilis; [10]) | MIC S. marcescens (Serratia marcescens; [10])
50 µg/mL: MIC (E. coli DH5α) | MIC P. aeruginosa (Pseudomonas aeruginosa; [10]) | MIC K. pneumonia (Klebsiella pneumonia; [10]) | MIC E. cloacae (Enterobacter cloacae; [10])

PRT507 (CICYGHARACPLDPATNKSRCECEHNTCGDSCDQCCPGFHQKPWRAGTFLTKTECEA; listed as Homo sapiens)
25 µg/mL: MIC against S. marcescens (Serratia marcescens; 96-well plate, 37° C., 10 h)
50 µg/mL: MIC against E. coli BL21 (E. coli BL21; 96-well plate, 37° C., 10 h) | MIC against K. pneumonia (Klebsiella pneumonia; 96-well plate, 37° C., 10 h) | MIC against A. hydrophila (Aeromonas hydrophila; 96-well plate, 37° C., 10 h) | MIC against M. catarrhalis (Moraxella catarrhalis; 96-well plate, 37° C., 10 h) | MIC against P. vulgaris (Proteus vulgaris; 96-well plate, 37° C., 10 h)
12.5 µg/mL: MIC (E. coli DH5α) | MIC against P. aeruginosa (Pseudomonas aeruginosa; 96-well plate, 37° C., 10 h) | MIC against E. cloacae (Enterobacter cloacae; 96-well plate, 37° C., 10 h) | MIC against C. diversus (Citrobacter diversus; 96-well plate, 37° C., 10 h) | MIC against P. mirabilis (Proteus mirabilis; 96-well plate, 37° C., 10 h)

PRT741 (SAHPCARDNGGCSHICIAKGDGTPRCSCPVHLVLLQNLLTCG; listed as Homo sapiens)
50 µg/mL: MIC E. coli BL21 (E. coli BL21; 96-well plate, 37° C., 10 h) | MIC E. cloacae (Enterobacter cloacae; 96-well plate, 37° C., 10 h) | MIC C. diversus (Citrobacter diversus; 96-well plate, 37° C., 10 h) | MIC P. mirabilis (Proteus mirabilis; 96-well plate, 37° C., 10 h)
12.5 µg/mL: MIC (E. coli DH5α) | MIC P. aeruginosa (Pseudomonas aeruginosa; 96-well plate, 37° C., 10 h) | MIC A. hydrophila (Aeromonas hydrophila; 96-well plate, 37° C., 10 h) | MIC M. catarrhalis (Moraxella catarrhalis; 96-well plate, 37° C., 10 h) | MIC S. marcescens (Serratia marcescens; 96-well plate, 37° C., 10 h)
25 µg/mL: MIC K. pneumonia (Klebsiella pneumonia; 96-well plate, 37° C., 10 h) | MIC P. vulgaris (Proteus vulgaris; 96-well plate, 37° C., 10 h)

PRT39 (PVRDCSRNNGGCTRNFKCVSDRQVDSSGCVCPEELKPMKDGSGCY; listed as Homo sapiens)
12.5 µg/mL: MIC (μg/mL) M. catarrhalis (Moraxella catarrhalis; [16]) | MIC (μg/mL) P. vulgaris (Proteus vulgaris; [18]) | MIC (μg/mL) S. marcescens (Serratia marcescens; [19])
50 µg/mL: MIC (E. coli DH5α) | MIC (μg/mL) P. aeruginosa (Pseudomonas aeruginosa; [11]) | MIC (μg/mL) K. pneumonia (Klebsiella pneumonia; [12]) | MIC (μg/mL) A. hydrophila (Aeromonas hydrophila; [14]) | MIC (μg/mL) C. diversus (Citrobacter diversus; [15])
25 µg/mL: MIC (μg/mL) E. coli BL21 (E. coli BL21; 96-well plate, 37° C., 10 h) | MIC (μg/mL) E. cloacae (Enterobacter cloacae; [13]) | MIC (μg/mL) P. mirabilis (Proteus mirabilis; [17])

PRT84 (EAGRCVPGVCRNGGTCTDAPNGGFRCQCPAGGAFEGPRCE; listed as Homo sapiens)
25 µg/mL: MIC (μg/mL) E. coli BL21 (E. coli BL21; 96-well plate, 37° C., 10 h) | MIC (μg/mL) K. pneumonia (Klebsiella pneumonia; [12]) | MIC (μg/mL) A. hydrophila (Aeromonas hydrophila; [14]) | MIC (μg/mL) M. catarrhalis (Moraxella catarrhalis; [16]) | MIC (μg/mL) P. vulgaris (Proteus vulgaris; [18])
12.5 µg/mL: MIC (E. coli DH5α) | MIC (μg/mL) P. aeruginosa (Pseudomonas aeruginosa; [11]) | MIC (μg/mL) E. cloacae (Enterobacter cloacae; [13]) | MIC (μg/mL) C. diversus (Citrobacter diversus; [15]) | MIC (μg/mL) P. mirabilis (Proteus mirabilis; [17]) | MIC (μg/mL) S. marcescens (Serratia marcescens; [19])
